Measured values as given in ChEMBL document CHEMBL5608189, “Design and synthesis of unique indole-benzosulfonamide oleanolic acid derivatives as potent antibacterial agents against MRSA” (Eur J Med Chem, 2024).
In brackets after ≈: the same amount, converted by molar mass. Activity calls are given as the source filed them. The calls are words filed in the database; no cut-off is given here.

Key:
[1] = tested on: Staphylococcus aureus; test: Antibacterial activity against Staphylococcus aureus ATCC 6538 measured after 24 hrs by susceptibility assay; assay type: functional
[2] = tested on: Staphylococcus epidermidis; test: Antibacterial activity against Staphylococcus epidermidis ATCC 12228 measured after 24 hrs by susceptibility assay; assay type: functional
[3] = tested on: Staphylococcus aureus; test: Antibacterial activity against methicillin-resistant Staphylococcus aureus measured after 24 hrs by susceptibility assay; assay type: functional
[4] = tested on: Staphylococcus aureus; test: Antibacterial activity against Staphylococcus aureus ATCC 29213 measured after 24 hrs by susceptibility assay; assay type: functional
[5] = tested on: Staphylococcus aureus; test: Bactericidal activity against Staphylococcus aureus ATCC 6538 measured after 24 hrs; assay type: functional
[6] = tested on: Staphylococcus aureus; test: Bactericidal activity against Staphylococcus aureus ATCC 29213 measured after 24 hrs; assay type: functional
[7] = tested on: Staphylococcus epidermidis; test: Bactericidal activity against Staphylococcus epidermidis ATCC 12228 measured after 24 hrs; assay type: functional
[8] = tested on: Staphylococcus aureus; test: Bactericidal activity against methicillin-resistant Staphylococcus aureus measured after 24 hrs; assay type: functional
[9] = tested on: Staphylococcus aureus; test: Antibacterial activity against Staphylococcus aureus ATCC 6538 assessed as inhibition of bacterial growth at 1 times MIC measured every 2 hrs for 24 hrs by time kill assay; assay type: functional, organism-based
[10] = tested on: Staphylococcus epidermidis; test: Antibacterial activity against Staphylococcus epidermidis ATCC 12228 assessed as inhibition of bacterial growth at 1 times MIC measured every 2 hrs for 24 hrs by time kill assay; assay type: functional, organism-based
[11] = tested on: Staphylococcus aureus; test: Antibacterial activity against methicillin-resistant Staphylococcus aureus assessed as inhibition of bacterial growth at 1 times MIC measured every 2 hrs for 24 hrs by time kill assay; assay type: functional, organism-based
[12] = tested on: Staphylococcus aureus; test: Antibacterial activity against Staphylococcus aureus ATCC 6538 assessed as delay in bacterial growth at 0.5 times MIC measured every 2 hrs for 24 hrs by time kill assay; assay type: functional, organism-based
[13] = tested on: Staphylococcus epidermidis; test: Antibacterial activity against Staphylococcus epidermidis ATCC 12228 assessed as delay in bacterial growth at 0.5 times MIC measured every 2 hrs for 24 hrs by time kill assay; assay type: functional, organism-based
[14] = tested on: Staphylococcus aureus; test: Antibacterial activity against methicillin-resistant Staphylococcus aureus assessed as delay in bacterial growth at 0.5 times MIC measured every 2 hrs for 24 hrs by time kill assay; assay type: functional, organism-based
[15] = tested on: Staphylococcus aureus; test: Antibacterial activity against Staphylococcus aureus ATCC 6538 assessed as inhibition of bacterial growth at 2 to 4 times MIC measured every 2 hrs for 24 hrs by time kill assay relative to control; assay type: functional
[16] = tested on: Staphylococcus epidermidis; test: Antibacterial activity against Staphylococcus epidermidis ATCC 12228 assessed as inhibition of bacterial growth at 2 to 4 times MIC measured every 2 hrs for 24 hrs by time kill assay relative to control; assay type: functional
[17] = tested on: Staphylococcus aureus; test: Antibacterial activity against methicillin-resistant Staphylococcus aureus assessed as inhibition of bacterial growth at 2 to 4 times MIC measured every 2 hrs for 24 hrs by time kill assay relative to control; assay type: functional
[18] = Hemolytic activity in rabbit red blood cells assessed as hemolytic rate at 128 times MIC measured after 1 hr by absorbance based method relative to control; assay type: toxicity, cell-based, Oryctolagus cuniculus, Erythrocyte; details: rabbit red blood cells (erythrocytes), read-out: Activity
[19] = tested on: Staphylococcus aureus; test: Resistant development in methicillin-resistant Staphylococcus aureus assessed as increase in MIC at sub-MIC measured after 20 passages; assay type: functional, organism-based

Compound	MIC [1]	MIC [2]	MIC [3]	MIC [4]	also measured
CC1(C)CC[C@]2(C(=O)NS(=O)(=O)c3ccc(C(=O)O)cc3)CC[C@]3(C)C(=CC[C@@H]4[C@@]5(C)Cc6c([nH]c7cc(C(=O)O)ccc67)C(C)(C)[C@@H]5CC[C@]43C)[C@@H]2C1	1 µM (≈ 0.755 µg/mL)	4 µM (≈ 3.02 µg/mL)	2 µM (≈ 1.51 µg/mL)	2 µM (≈ 1.51 µg/mL)	–
CC1(C)CC[C@]2(C(=O)Nc3ccc(-c4ccccc4)cc3)CC[C@]3(C)C(=CC[C@@H]4[C@@]5(C)Cc6c([nH]c7cccc(C(=O)O)c67)C(C)(C)[C@@H]5CC[C@]43C)[C@@H]2C1	32 µM (≈ 23.1 µg/mL)	64 µM (≈ 46.3 µg/mL)	256 µM (≈ 185 µg/mL)	128 µM (≈ 92.5 µg/mL)	–
CC1(C)CC[C@]2(C(=O)NS(=O)(=O)c3ccc(Cl)cc3)CC[C@]3(C)C(=CC[C@@H]4[C@@]5(C)Cc6c([nH]c7ccc(C(=O)O)cc67)C(C)(C)[C@@H]5CC[C@]43C)[C@@H]2C1	0.5 µM (≈ 0.373 µg/mL)	1 µM (≈ 0.745 µg/mL)	1 µM (≈ 0.745 µg/mL)	1 µM (≈ 0.745 µg/mL)	–
CC1(C)CC[C@]2(C(=O)NS(=O)(=O)c3ccccc3)CC[C@]3(C)C(=CC[C@@H]4[C@@]5(C)Cc6c([nH]c7ccccc67)C(C)(C)[C@@H]5CC[C@]43C)[C@@H]2C1	> 256 µM	> 256 µM	> 256 µM	> 256 µM	–
CC1(C)CC[C@]2(C(=O)NS(=O)(=O)c3ccc(C(=O)O)cc3)CC[C@]3(C)C(=CC[C@@H]4[C@@]5(C)Cc6c([nH]c7cccc(C(=O)O)c67)C(C)(C)[C@@H]5CC[C@]43C)[C@@H]2C1	64 µM (≈ 48.3 µg/mL)	256 µM (≈ 193 µg/mL)	256 µM (≈ 193 µg/mL)	128 µM (≈ 96.6 µg/mL)	–
CC(=O)c1cccc2c3c([nH]c12)C(C)(C)[C@@H]1CC[C@]2(C)[C@H](CC=C4[C@@H]5CC(C)(C)CC[C@]5(C(=O)NS(=O)(=O)c5ccccc5)CC[C@]42C)[C@@]1(C)C3	1 µM (≈ 0.709 µg/mL)	0.5 µM (≈ 0.355 µg/mL)	1 µM (≈ 0.709 µg/mL)	2 µM (≈ 1.42 µg/mL)	MBC [5]: 2 µM (≈ 1.42 µg/mL); MBC [6]: 2 µM (≈ 1.42 µg/mL); MBC [7]: 2 µM (≈ 1.42 µg/mL); MBC [8]: 4 µM (≈ 2.84 µg/mL); Activity [9]: Active; Activity [10]: Active; Activity [11]: Active; Activity [12]: Active; Activity [13]: Active; Activity [14]: Active; inhibition (INH) [15]: 100%; inhibition (INH) [16]: 100%; inhibition (INH) [17]: 100%; hemolysis at 1 h, 128 times MIC [18]: < 5%; Activity [19]: inactive
CC1(C)CC[C@]2(C(=O)NS(=O)(=O)c3ccccc3)CC[C@]3(C)C(=CC[C@@H]4[C@@]5(C)Cc6c([nH]c7ccc(Br)cc67)C(C)(C)[C@@H]5CC[C@]43C)[C@@H]2C1	> 256 µM	> 256 µM	> 256 µM	> 256 µM	–
COc1ccc(S(=O)(=O)NC(=O)[C@]23CCC(C)(C)C[C@H]2C2=CC[C@@H]4[C@@]5(C)Cc6c([nH]c7c(C(=O)O)cccc67)C(C)(C)[C@@H]5CC[C@@]4(C)[C@]2(C)CC3)cc1	2 µM (≈ 1.48 µg/mL)	2 µM (≈ 1.48 µg/mL)	4 µM (≈ 2.96 µg/mL)	1 µM (≈ 0.741 µg/mL)	–
CN1CCN(C(=O)[C@]23CCC(C)(C)C[C@H]2C2=CC[C@@H]4[C@@]5(C)Cc6c([nH]c7c(C(=O)O)cccc67)C(C)(C)[C@@H]5CC[C@@]4(C)[C@]2(C)CC3)CC1	> 256 µM	128 µM (≈ 83.7 µg/mL)	> 256 µM	> 256 µM	–
CC1(C)CC[C@]2(C(=O)NS(=O)(=O)c3ccc(Cl)cc3)CC[C@]3(C)C(=CC[C@@H]4[C@@]5(C)Cc6c([nH]c7cc(C(=O)O)ccc67)C(C)(C)[C@@H]5CC[C@]43C)[C@@H]2C1	0.5 µM (≈ 0.373 µg/mL)	1 µM (≈ 0.745 µg/mL)	2 µM (≈ 1.49 µg/mL)	2 µM (≈ 1.49 µg/mL)	–
COc1ccc(S(=O)(=O)NC(=O)[C@]23CCC(C)(C)C[C@H]2C2=CC[C@@H]4[C@@]5(C)Cc6c([nH]c7ccc(C(=O)O)cc67)C(C)(C)[C@@H]5CC[C@@]4(C)[C@]2(C)CC3)cc1	0.5 µM (≈ 0.371 µg/mL)	2 µM (≈ 1.48 µg/mL)	2 µM (≈ 1.48 µg/mL)	2 µM (≈ 1.48 µg/mL)	–
COc1ccc(S(=O)(=O)NC(=O)[C@]23CCC(C)(C)C[C@H]2C2=CC[C@@H]4[C@@]5(C)Cc6c([nH]c7cc(C(=O)O)ccc67)C(C)(C)[C@@H]5CC[C@@]4(C)[C@]2(C)CC3)cc1	1 µM (≈ 0.741 µg/mL)	2 µM (≈ 1.48 µg/mL)	4 µM (≈ 2.96 µg/mL)	4 µM (≈ 2.96 µg/mL)	–
CN1CCN(C(=O)[C@]23CCC(C)(C)C[C@H]2C2=CC[C@@H]4[C@@]5(C)Cc6c([nH]c7cc(C(=O)O)ccc67)C(C)(C)[C@@H]5CC[C@@]4(C)[C@]2(C)CC3)CC1	> 256 µM	64 µM (≈ 41.9 µg/mL)	256 µM (≈ 167 µg/mL)	> 256 µM	–
